The values that follow come from patent publication EP0091328B1, “Trans-4-aminobenz(c,d)indol-5-ol derivatives, their salts, their preparation, their use as medicaments and compositions containing them” (priority 1982, dated 1983).

Where a name gives a salt, the structure may show the parent alone.

For series [1], the system named is souris. The experiment in a line: Acute toxicity, lethal dose DL0 after oral administration. Type of series: in vivo. As to conditions: mouse, maximal dose causing no mortality in 8 days. The source says: 4) Etude de la toxicité aiguë
On a évalué les doses létales DLo des différents composés testés après administration par voie orale chez la souris.
On appelle DLo la dose maximale ne provoquant aucune mortalité en 8 jours.

In series [2] the test system is rats mâles de souche WISTAR. Put plainly: Hypotensive activity in anaesthetised rats (carotid arterial pressure, intravenous administration). Type of series: in vivo. The settings on record: anaesthetised Wistar rat, versus initial control pressure. How it is done:
1) Détermination de l'activité hypotensive
L'activité hypotensive a été étudiée sur des rats mâles de souche WISTAR pesant 300 g environ et anesthésiés au nembutal (50 mg/kg par voie intraveineuse).
Le produit testé a été administré par voie intraveineuse dans la veine jugulaire.
La pression artérielle càrotidienne a été mesurée avant et après administration du produit testé.
Le tableau ci-après indique les variations exprimées en pourcentage de la pression artérielle après- administration du produit testé par rapport à la pression artérielle témoin initiale.

In the case of `N[C@@H]1CC2CNc3cccc(c32)[C@H]1O` (mixture of isomers) [Exemple 1, dichlorhydratede trans 4RS 4-amino 1,2,2a.3,4,5-hexahydro benz(c,d) indol-5-0l], the DL0 in series [1] is more than 400 mg/kg.

Compound `CN[C@@H]1CC2CNc3cccc(c32)[C@H]1O` (mixture of isomers) [Exemple 2, Fumarate neutrede trans 4RS 4-(méthylamino) 1,2,2a,3,4,5-hexahydro benz(c,d) indol-5-0l] showed a DL0 in series [1] of more than 800 mg/kg.

Take `CCN[C@@H]1CC2CNc3cccc(c32)[C@H]1O` (mixture of isomers) [Exemple 3, Fumarate neutrede trans 4RS 4-(éthylamino) 1,2,2a,3,4,5-hexahydro benz(c,d) indol-5-ol]: in series [1], the DL0 is recorded as more than 400 mg/kg.

Take `CN[C@@H]1Cc2c[nH]c3cccc(c23)[C@H]1O` (racemic) [Exemple 7, Chlorhydratede trans 4RS 4-(méthylamino) 1,3,4,5-tétrahydro benz(c,d) indol-5-0l]: in series [1], the DL0 was more than 400 mg/kg.

Take `CCN[C@@H]1Cc2c[nH]c3cccc(c23)[C@H]1O` (racemic) [Exemple 8, Chlorhydratede trans 4RS 4-(éthylamino) 1,3,4,5-tétrahydro benz(c,d) indol-5-0l]: the “Variation % de la pression artérielle 30 minutes après l'administration” value in series [2] (dose 0,1 mg/kg) is -13%. In series [1], this compound came in with a DL0 of 80 mg/kg.

Take `CCCN[C@@H]1Cc2c[nH]c3cccc(c23)[C@H]1O` (racemic) [Exemple 9, Chlorhydratede trans 4RS 4-(propylamino) 1,3,4,5-tétrahydro benz(c,d) indol-5-0l]: in series [2] (dose 1 mg/kg), the “Variation % de la pression artérielle 30 minutes après l'administration” value was -30%. Moreover, the DL0 in series [1] worked out at 60 mg/kg.

Turning to `CC(C)N[C@@H]1Cc2c[nH]c3cccc(c23)[C@H]1O` (racemic) [Exemple 10, Chlorhydratede trans 4RS 4-(isopropylamino) 1,3,4,5-tétrahydro benz(c,d) indol-5-0l], the “Variation % de la pression artérielle 30 minutes après l'administration” value in series [2] (dose 1 mg/kg) is recorded as -24%. The same compound yielded a DL0 in series [1] of 100 mg/kg.

On to “trans 4RS 4-(isopropylamino) 1,,2a,3,4,5-hexahydrobenz(c,d) indol-5-ol [Exemple 5]”, for which the DL0 in series [1] is listed as 200 mg/kg.

“trans 4RS 4-(propylamino) 1,2,2a,3,4,5-hexahydrobenz(c,d) indol-5--ol [Exemple 4]” gave a DL0 in series [1] of 200 mg/kg.
